Data on two molecules can be found in ChEMBL document CHEMBL1145711, “Dolabelides C and D, Cytotoxic Macrolides Isolated from the Sea Hare Dolabella auricularia” (J Nat Prod, 1997).

The test can be described thus: Cytotoxicity against human HeLaS3 cells. Type of test: functional, cell-based. Conditions: HeLa S3.

Values after ≈ are worked out from the molar mass of the structure shown.

Turning to `CCC[C@H](C/C(C)=C/[C@H]1OC(=O)[C@@H](C)[C@@H](O)[C@H](C)CC[C@H](OC(C)=O)C[C@@H](OC(C)=O)C[C@@H](OC(C)=O)CC/C(C)=C/CCC[C@@H](O)C[C@H](O)[C@@H]1C)OC(C)=O` [DOLABELIDE C], 1.9 µg/mL (≈ 2.38 µM) corresponded to half-maximal inhibition (IC50).

For the molecule `CCC[C@H](C/C(C)=C/[C@H]1OC(=O)[C@@H](C)[C@@H](O)[C@H](C)CC[C@H](O)C[C@@H](OC(C)=O)C[C@@H](O)CC/C(C)=C/CCC[C@@H](O)C[C@H](O)[C@@H]1C)OC(C)=O` [DOLABELIDE D], the IC50 came out at 1.5 µg/mL (≈ 2.1 µM).
